Assay results reported in patent US8309056B2, “Method for determination of oxidative stress” (Keio University, priority 2006, dated 2012).

Assays:
[1] = test system: glutathione biosynthesis pathway in the liver; test: Metabolites in liver of agent-administered mice vs control mice, measured by CE-TOFMS; type: in vivo
Description: Male mice fasted overnight were anesthetized by intraperitoneal injection of pentobarbital sodium (60 mg per Kg body weight). […] The liver (about 300 mg) harvested from mice was immediately plunged into 1 ml of methanol containing internal standards and homogenized to inactivate enzymes and stop increase in metabolism Then, 500 μl of pure water was added and 300 μl of the solution was collected. 200 μl of chloroform was added to the solution, which was then thoroughly mixed. The solution was centrifuged at 15000 rpm at 4° C. for 15 minutes. After left standing, the separated 300 μl-water-methanol phase was centrifugally filtered through an ultrafiltration filter (5 kDa cutoff) to remove proteins. The filtrate was lyophilized and 50 μl of […]® ultrapure water was added thereto prior to CE-MS (CE-TOFMS) analysis. Metabolites having a mass of 1000 or less were comprehensively measured using CE-TOFMS under measuring conditions for cationic metabolites and anionic metabolites. As a capillary, a fused silica capillary having an inner diameter of 50 μm, an outer diameter of 350 μm, and a total length of 100 cm was used. As a buffer, 1 M formic acid (pH is about 1.8) was used. Measurement was performed with an applied voltage of +30 kV and a capillary temperature of 20° C. A sample was injected at 50 mbar for 3 seconds using the pressure method. In TOFMS, the positive ion mode was employed and the ionization, fragmentor, skimmer, and Oct RFV voltages were set at 4 kV, 75 V, 50 V, and 125 V, respectively. Nitrogen was used as a drying gas, which was set at a temperature of 300° C. and a pressure of 10 psig. Methanol solution (50%) was used as a sheath liquid. To this solution, reserpine (m/z 609.2807) was added at 0.5 μM for mass calibration and the solution was delivered at 10μ/min. All the obtained data were automatically calibrated using the mass of reserpine (m/z 609.2807) and methanol adduct ion (m/z 83.0703). As a capillary, SMILE(+) capillary having an inner diameter of 50 μm, an outer diameter of 350 μm, and a total length of 100 cm was used. As a buffer, 50 mM ammonium acetate (pH 8.5) was used. Measurement was performed with an applied voltage of -30 kV and a capillary temperature of 20° C. A sample was injected at 50 mbar for 30 seconds using the pressure method. In TOFMS, the negative ion mode was employed and the ionization, fragmentor, skimmer, and Oct RFV voltage were set at 3.5 kV, 100 V, 50 V, and 200 V, respectively. Nitrogen was used as a drying gas, which was set at a temperature of 300° C. and a pressure of 10 psig. Ammonium acetate (5 mM) in 50% methanol solution was used as a sheath liquid. To this solution, 20 μM PIPES and 1 μM reserpine (m/z 609.2807) was added for mass calibration and was delivered at 10μ/min. All the obtained data were automatically calibrated using the mass of reserpine (m/z 609.2807), monovalent PIPES (m/z 301.0534), and divalent PIPES (m/z 150.0230). […] The extracts were comprehensively and quantitatively analyzed with a capillary electrophoresis-mass spectrometer (CE-MS) or the like. […] Ophthalmic acid preparation was obtained and compared with the unknown substance.

serum metabolites = test: Metabolites in serum of AAP-administered mice vs control mice, measured by CE-TOFMS; type: in vivo
Description: Male mice fasted overnight were anesthetized by intraperitoneal injection of pentobarbital sodium (60 mg per Kg body weight). […] Metabolites having a mass of 1000 or less were comprehensively measured using CE-TOFMS under measuring conditions for cationic metabolites and anionic metabolites. As a capillary, a fused silica capillary having an inner diameter of 50 μm, an outer diameter of 350 μm, and a total length of 100 cm was used. As a buffer, 1 M formic acid (pH is about 1.8) was used. Measurement was performed with an applied voltage of +30 kV and a capillary temperature of 20° C. A sample was injected at 50 mbar for 3 seconds using the pressure method. In TOFMS, the positive ion mode was employed and the ionization, fragmentor, skimmer, and Oct RFV voltages were set at 4 kV, 75 V, 50 V, and 125 V, respectively. Nitrogen was used as a drying gas, which was set at a temperature of 300° C. and a pressure of 10 psig. Methanol solution (50%) was used as a sheath liquid. To this solution, reserpine (m/z 609.2807) was added at 0.5 μM for mass calibration and the solution was delivered at 10μ/min. All the obtained data were automatically calibrated using the mass of reserpine (m/z 609.2807) and methanol adduct ion (m/z 83.0703). As a capillary, SMILE(+) capillary having an inner diameter of 50 μm, an outer diameter of 350 μm, and a total length of 100 cm was used. As a buffer, 50 mM ammonium acetate (pH 8.5) was used. Measurement was performed with an applied voltage of -30 kV and a capillary temperature of 20° C. A sample was injected at 50 mbar for 30 seconds using the pressure method. In TOFMS, the negative ion mode was employed and the ionization, fragmentor, skimmer, and Oct RFV voltage were set at 3.5 kV, 100 V, 50 V, and 200 V, respectively. Nitrogen was used as a drying gas, which was set at a temperature of 300° C. and a pressure of 10 psig. Ammonium acetate (5 mM) in 50% methanol solution was used as a sheath liquid. To this solution, 20 μM PIPES and 1 μM reserpine (m/z 609.2807) was added for mass calibration and was delivered at 10μ/min. […]

[2] = 2 hours after administration, vs control mice
[3] = at 1 and 2 hours after administration (time course)
[4] = time course 1-24 hours after administration

For `CCCCS(=N)(=O)CCC(N)C(=O)O` (stereo not drawn) [BSO, buthionine sulfoximine], the GSH in liver [1, 2] was “remarkably decreased”, the “ophthalmic acid in liver” value [1, 2] was “remarkably decreased” and the “γ-Glu-2-aminobutyric acid (γ-Glu-2AB) in liver” value [1, 2] was “remarkably decreased”. For the same compound, the γ-Glu-Cys in liver [1, 2] was “remarkably decreased”.
With `CC(=O)Nc1ccc(O)cc1` [AAP, Acetaminophen] the GSH in liver [1, 2] was “Dramatically decreased”, the “all the substances in the glutathione biosynthesis pathway in the liver” value [1, 2] was “decrease” and the “ophthalmic acid in liver” value [1, 2] was “increase”. For the same compound, the “oxidized glutathione (GSSG) in liver” value [1, 2] was “Dramatically decreased”, the “γ-Glu-2-aminobutyric acid (γ-Glu-2AB) in liver” value [1, 2] was “increase” and the GSH in liver [1, 3] was “rapidly decreased”. For the same compound, the “ophthalmic acid in liver” value [1, 3] was “dramatically increased”, the GSSH in liver [1, 4] was “a behavior similar to that of GSH in liver” and the “ophthalmic acid in serum” value (serum metabolites; [3]) was “dramatically increased”. For the same compound, the GSH in serum (serum metabolites; [4]) was “not detected” and the GSSH in serum (serum metabolites; [4]) was “a behavior similar to that of GSH in liver”.
